Values joined by “and” are separate entries in the source; they are usually repeats but may differ in a detail not shown here. Equal entries are not always repeated.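 Where inhibition never reached the appropriate level, the endpoint shown equals the highest concentration tested. Otherwise, values were interpolated linearly from a five-concentration, 48-hour dose response in 96-well plates. GI50: concentration for 50% inhibition of growth. TGI denotes the concentration required for complete inhibition of growth.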

Among the test systems are A549 NSCLC; HL-60(TB) leukemia; HOP-92 NSCLC; MOLT-4 leukemia; NCI-H23 lung; NCI-H460 lung; SN12C renal; SNB-19 CNS; U251 CNS; UACC-62 melanoma.
Holding throughout (experiment): NCI-60 cell line screen, 48 h

With `NS(=O)(=O)c1ccc(N=Nc2c(O)[nH]c3ccc(C(=O)NCc4ccncc4)cc23)cc1`, the GI50 in the assay on A549 NSCLC, with HL-60(TB) leukemia, in the assay with HOP-92 NSCLC, with MOLT-4 leukemia, in the assay on NCI-H23 lung and in the assay with NCI-H460 lung was over 25 µM each time. The GI50 in the assay with SN12C renal, in the assay on SNB-19 CNS, with U251 CNS and in the assay on UACC-62 melanoma was over 25 µM throughout. The TGI in the assay on A549 NSCLC, in the assay on HL-60(TB) leukemia, with HOP-92 NSCLC, in the assay with MOLT-4 leukemia, in the assay on NCI-H23 lung and in the assay with NCI-H460 lung was over 25 µM throughout. The TGI in the assay with SN12C renal, with SNB-19 CNS, in the assay with U251 CNS and in the assay with UACC-62 melanoma was over 25 µM in each case.
As to `Cc1c2c(cc3c1C(=O)C(=O)C1=C3OC[C@@H]1C)C(C)(C)CCC2`, the TGI with A549 NSCLC was determined as 26.8 µM; with HL-60(TB) leukemia, 26.9 µM; with HOP-92 NSCLC, 61.2 µM; in the assay on MOLT-4 leukemia it was 32 µM; with NCI-H23 lung it was 28.4 µM; in the assay with NCI-H460 lung, 28.1 µM. Moreover, the TGI with SN12C renal came out at 34.6 µM; in the assay on SNB-19 CNS it was 49.3 µM; in the assay on U251 CNS, 34.4 µM; with UACC-62 melanoma it was 25.9 µM.
In the case of `NC(=O)[C@@H](CC1CC1)[C@@H](CCC(F)(F)F)C(=O)N[C@H]1N=C(c2ccccc2)c2cccc(F)c2NC1=O`, the GI50 in the assay on A549 NSCLC was over 100 µM; in the assay with HL-60(TB) leukemia it was 11.5 µM; in the assay with HOP-92 NSCLC it was 19.3 µM; in the assay with MOLT-4 leukemia, 18.5 µM; in the assay on NCI-H23 lung it was over 100 µM; with NCI-H460 lung, over 100 µM. In addition, the GI50 in the assay with SN12C renal, in the assay on SNB-19 CNS, with U251 CNS and with UACC-62 melanoma was over 100 µM throughout. Besides, the TGI in the assay on A549 NSCLC was over 100 µM; with HL-60(TB) leukemia it was 39.1 µM; in the assay with HOP-92 NSCLC it was over 100 µM; in the assay on MOLT-4 leukemia, over 100 µM; in the assay on NCI-H23 lung, over 100 µM; in the assay on NCI-H460 lung, over 100 µM. Further, the TGI in the assay with SN12C renal, with SNB-19 CNS, in the assay with U251 CNS and in the assay with UACC-62 melanoma was over 100 µM throughout.
Consider `Clc1cccc(N2CCN(CCCN3CCc4c([nH]c5ccccc45)C3c3cccnc3)CC2)c1` (stereo not drawn), for which the GI50 in the assay with A549 NSCLC was 16.1 µM; in the assay with HL-60(TB) leukemia it was 4.63 µM; in the assay on HOP-92 NSCLC, 12.8 µM; in the assay on MOLT-4 leukemia, 5.33 µM; in the assay with NCI-H460 lung, 7.85 µM. The TGI in the assay on A549 NSCLC is 36.9 µM; with HL-60(TB) leukemia, over 100 µM; in the assay on HOP-92 NSCLC it was 31.3 µM; in the assay with MOLT-4 leukemia it was 39.8 µM; in the assay with NCI-H23 lung it was 27 µM; in the assay with NCI-H460 lung, 23.7 µM. The TGI in the assay with SN12C renal was 30.3 µM; in the assay on SNB-19 CNS, over 100 µM; in the assay with U251 CNS, 23.9 µM.
As to `O=C(O)c1cc(=O)c2c([nH]c3ccccc32)s1`, the TGI in the assay with A549 NSCLC, in the assay on HL-60(TB) leukemia, with HOP-92 NSCLC, with MOLT-4 leukemia, with NCI-H23 lung and in the assay on NCI-H460 lung was over 100 µM each time. The TGI in the assay with SN12C renal, with SNB-19 CNS and in the assay with UACC-62 melanoma was over 100 µM throughout.
For the molecule `CNc1ccc2ncccc2c1[N+](=O)[O-]`, the TGI in the assay on A549 NSCLC, in the assay on HL-60(TB) leukemia, with HOP-92 NSCLC, in the assay on MOLT-4 leukemia, in the assay on NCI-H23 lung and in the assay with NCI-H460 lung was over 100 µM in each case. For the same molecule, the TGI in the assay on SN12C renal, with SNB-19 CNS and in the assay on UACC-62 melanoma was over 100 µM throughout.
Regarding `O=C1C2=C(C(=O)c3cnccc31)C1C=CC2CC1` (stereo not drawn), the GI50 is 3.67 µM with A549 NSCLC; 1.25 µM in the assay with HL-60(TB) leukemia; 2.62 µM in the assay with HOP-92 NSCLC; 1.82 µM in the assay on NCI-H23 lung; 8.48 µM with NCI-H460 lung; 1.69 µM with SN12C renal. The GI50 is 5.03 µM in the assay on SNB-19 CNS, 1.76 µM with U251 CNS and 1.92 µM in the assay on UACC-62 melanoma. Besides, the TGI in the assay with A549 NSCLC came out at 8.73 µM; in the assay with HL-60(TB) leukemia it was 4.63 µM; in the assay on HOP-92 NSCLC, 8.8 µM; in the assay with NCI-H23 lung, 4.02 µM; with NCI-H460 lung, 21.7 µM; with SN12C renal it was 3.1 µM. Also, the TGI was determined as 9.41 µM with SNB-19 CNS, 3.19 µM with U251 CNS and 3.4 µM in the assay with UACC-62 melanoma.
Take `Cc1nc2ccc(Br)cc2c(=O)n1-c1ccc(NC2OCC(O)C(O)C2O)cc1` (stereo not drawn): the TGI in the assay on A549 NSCLC is over 100 µM; in the assay with HL-60(TB) leukemia it was over 100 µM; with HOP-92 NSCLC, 64.2 µM and > 100 µM; in the assay with MOLT-4 leukemia, over 100 µM; in the assay with NCI-H460 lung, over 100 µM; in the assay on SN12C renal, over 100 µM. Further, the TGI with SNB-19 CNS and with UACC-62 melanoma was over 100 µM in each case. Also, the GI50 in the assay on HL-60(TB) leukemia is 34.9 µM and 73.1 µM; in the assay on HOP-92 NSCLC, 22.4 µM and > 100 µM; with MOLT-4 leukemia, 19.6 µM and 71.2 µM; with NCI-H460 lung it was 47.2 µM and > 100 µM; in the assay with SN12C renal, 30 µM and > 100 µM; in the assay with UACC-62 melanoma, 30.7 µM and > 100 µM.
As for `CCOC(=O)c1c(C)n(Cc2ccc(Cl)cc2Cl)c2c1cc1oc(=O)c(=O)n3cnc2c13`, the GI50 in the assay on A549 NSCLC was 9.71 µM; with HL-60(TB) leukemia, 5.43 µM; in the assay on HOP-92 NSCLC it was 13.9 µM; in the assay with MOLT-4 leukemia, 3.99 µM; with NCI-H460 lung it was 7.78 µM; in the assay on SN12C renal, 19 µM. The GI50 with SNB-19 CNS is 17.4 µM; in the assay with U251 CNS, 14.7 µM. Moreover, the TGI in the assay with A549 NSCLC was 21.9 µM; in the assay with HL-60(TB) leukemia it was 28.2 µM; in the assay with HOP-92 NSCLC, 27.2 µM; with MOLT-4 leukemia, 20.7 µM; in the assay with NCI-H460 lung it was 20 µM; with SN12C renal, 35.2 µM. The figures for the TGI with SNB-19 CNS and in the assay with U251 CNS were 32.1 µM and 27.9 µM, respectively.
As for `COc1ccc(Nc2nc3ccccc3c3occc23)cc1`, the GI50 was 32.9 µM in the assay on A549 NSCLC; 10.3 µM in the assay with HL-60(TB) leukemia; 7.62 µM with HOP-92 NSCLC; 5.72 µM with NCI-H23 lung; over 50 µM with NCI-H460 lung; 7.37 µM in the assay with SN12C renal. In addition, the GI50 with SNB-19 CNS was 7.62 µM; with U251 CNS, 5.13 µM; with UACC-62 melanoma it was 5.48 µM. Further, the TGI in the assay with A549 NSCLC is over 50 µM; in the assay with HL-60(TB) leukemia, over 50 µM; with HOP-92 NSCLC, 21.8 µM; with NCI-H23 lung it was 12.4 µM; with NCI-H460 lung, over 50 µM; in the assay on SN12C renal it was 17.5 µM. Also, the TGI with SNB-19 CNS is 16.5 µM; in the assay with U251 CNS, 11.7 µM; with UACC-62 melanoma, 11.4 µM.

(Values after PubChem BioAssay (NCI).)
